Reference: patent US20220402916A1, “SMALL MOLECULE INHIBITORS OF KRAS G12C MUTANT” (Merck Sharp & Dohme Corp., priority 2019, published 2022)
Where two headings read alike, the source gives them in different places.

Assays:
[1] = target: T1, Biotinylated KRAS G12C protein (Homo sapiens, UniProt P01116, C118S/C51S/C80L/G12C); assay: SOS-catalyzed nucleotide exchange assay; assay type: biochemical; details: apparent potency; preincubation time of 60 minutes prior to addition of SOS
T1 construct: 183 amino acids; biotin on K10
T1 sequence (P01116 with tags, fused parts or gaps isoform P01116-2 G12C/C51S/C80L/C118S): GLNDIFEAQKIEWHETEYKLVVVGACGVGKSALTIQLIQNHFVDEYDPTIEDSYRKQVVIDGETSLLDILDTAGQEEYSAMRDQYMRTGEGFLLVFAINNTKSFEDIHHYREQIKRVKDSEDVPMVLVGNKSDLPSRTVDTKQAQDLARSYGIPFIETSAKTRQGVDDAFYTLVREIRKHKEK

NCI-H358 cells = assay: Cellular phospho-ERK assay; assay type: cell-based
Method: NCI-H358 cells (ATCC® CRL-5807™) were cultured in T150 flask in growth medium (RPMI medium 1640-GlutaMAX™-1 (ThermoFisher Scientific 61870) containing 10% fetal bovine serum (ThermoFisher Scientific 10091148)). The cells were harvested in growth medium after TrypLE (ThermoFisher scientific 12604021) digestion and were seeded in 384-well collagen coated cell culture plate (Corning 356702) at a density of 15,000 cells/well, and incubated at 37° C., 5% CO2 overnight. The compound dose-response titrations were prepared and appropriate amounts of compounds were dispensed in 384-well intermediate plate using Echo 550 liquid handler. RPMI medium 1640-GlutaMAX™-I were added to the intermediate plate and transferred to 384-well cell culture plate, which was incubated at 37° C., 5% CO2 for 2 hours. After removal of medium from the plate, cells were lysed in lysis buffer from Alpha SureFire® Ultra™ Multiplex p-Erk and total Erk assay kit (PerkinElmer MPSU-PTERK) containing Halt™ Protease and Phosphotase inhibitor cocktail (ThermoFisher Scientific 78446) at room temperature with constant shaking at 300 rpm for 30 minutes. The cell lysates were then transferred to OptiPlate-384 plate (PerkinElmer 6005620) and the phosphorylation of Erk and total Erk levels were detected by Alpha SureFire Ultra Multiplex p-Erk kit (PerkinElmer MPSU-PTERK) following the manufacturer's protocol. Assay plates were read on an EnVision Multimode Plate Reader (PerkinElmer) and the ratio of p-Erk vs total Erk in each well was used as the final readout. Dose response curves were analyzed using a 4-parameter logistic model to calculate IC50 values using spotfire software.

[2] = Homo sapiens, NCI-H358, 2 h, NCI-H358 cells, 2 hour incubation, ratio of p-Erk vs total Erk, read-out: IC50
[3] = NCI-H358 cells, 2 hour incubation, ratio of p-Erk vs total Erk, read-out: IC50

| Structure (SMILES) | IC50 [1] [nM] | IC50 (NCI-H358 cells; [2]) [µM] | IC50 (NCI-H358 cells; [3]) [µM] | IC50 (NCI-H358 cells; Homo sapiens, NCI-H358, 2 h) [µM] |
| --- | --- | --- | --- | --- |
| C=CC(=O)N1CCN(c2cc(C(=O)N[C@H](C)CN(C)C)nc3c2CCN(c2c(Cl)c(C)cc4[nH]ncc24)C3)CC1 [Compound 83, (R)-4-(4-acryloylpiperazin-1-yl)-7-(5-chloro-6-methyl-1H-indazol-4-yl)-N-(1-(dimethylamino)propan-2-yl)-5,6,7,8-tetrahydro-1,7-naphthyridine-2-carboxamide] | 90 | 1.6 | – | – |
| C=CC(=O)N1CCN(c2cc(C(=O)N[C@H](C)CN(C)C)nc3c2CCN(c2cccc4cccc(C)c24)C3)C[C@@H]1CC#N [Compound 65, 4-((S)-4-acryloyl-3-(cyanomethyl)piperazin-1-yl)-N-((R)-1-(dimethylamino)propan-2-yl)-7-(8-methylnaphthalen-1-yl)-5,6,7,8-tetrahydro-1,7-naphthyridine-2-carboxamide] | 2.1 | 0.016 | – | – |
| C=CC(=O)N1CCN(c2cc(C(=O)NC3(CC)CCNC3)nc3c2CCN(c2cccc4cccc(C)c24)C3)C[C@@H]1CC#N (mixture of isomers) [Compound 101, 4-((S)-4-acryloyl-3-(cyanomethyl)piperazin-1-yl)-N-((R)-3-ethylpyrrolidin-3-yl)-7-(8-methylnaphthalen-1-yl)-5,6,7,8-tetrahydro-1,7-naphthyridine-2-carboxamide, as a mixture with 4-((S)-4-acryloyl-3-(cyanomethyl)piperazin-1-yl)-N-((S)-3-ethylpyrrolidin-3-yl)-7-(8-methylnaphthalen-1-yl)-5,6,7,8-tetrahydro-1,7-naphthyridine-2-carboxamide] | 4.5 | 1.8 | – | – |
| C=CC(=O)N1CCN(c2cc(C(=O)NC(C)CN3CCC(F)(F)C3)nc3c2CCN(c2cccc4cccc(C)c24)C3)C[C@@H]1CC#N (single isomer, unassigned) [Compound 71, 4-((S)-4-acryloyl-3-(cyanomethyl)piperazin-1-yl)-N—((R or S)-1-(3,3-difluoropyrrolidin-1-yl)propan-2-yl)-7-(8-methylnaphthalen-1-yl)-5,6,7,8-tetrahydro-1,7-naphthyridine-2-carboxamide] | 32 | – | 5.55 | – |
| C=CC(=O)N1CCN(c2cc(C(=O)N3CCC[C@@H]3CN3CCCC3)nc3c2CCN(c2cccc4cccc(C)c24)C3)C[C@@H]1CC#N [Compound 63, 2-((S)-1-acryloyl-4-(7-(8-methylnaphthalen-1-yl)-2-((R)-2-(pyrrolidin-1-ylmethyl)pyrrolidine-1-carbonyl)-5,6,7,8-tetrahydro-1,7-naphthyridin-4-yl)piperazin-2-yl)acetonitrile] | 8 | – | – | 0.427 |
| C=CC(=O)N1CCN(c2cc(C(=O)N[C@@H]3CCC[C@H]3N(C)C)nc3c2CCN(c2cccc4cccc(C)c24)C3)C[C@@H]1CC#N (mixture of isomers) [Compound 66, 4-((S)-4-acryloyl-3-(cyanomethyl)piperazin-1-yl)-N-((1R,2R)-2-(dimethylamino)cyclopentyl)-7-(8-methylnaphthalen-1-yl)-5,6,7,8-tetrahydro-1,7-naphthyridine-2-carboxamide, as a mixture with 4-((S)-4-acryloyl-3-(cyanomethyl)piperazin-1-yl)-N-((1S,2S)-2-(dimethylamino)cyclopentyl)-7-(8-methylnaphthalen-1-yl)-5,6,7,8-tetrahydro-1,7-naphthyridine-2-carboxamide] | 1 | 0.041 | – | – |
| C=CC(=O)N1CCN(c2cc(C(=O)NC3(CN4CCCCC4)CC3)nc3c2CCN(c2cccc4cccc(C)c24)C3)CC1 [Compound 25, 4-(4-acryloylpiperazin-1-yl)-7-(8-methylnaphthalen-1-yl)-N-(1-(piperidin-1-ylmethyl)cyclopropyl)-5,6,7,8-tetrahydro-1,7-naphthyridine-2-carboxamide] | 74 | 5.64 | – | – |
| C=CC(=O)N1CCN(c2cc(C(=O)NC(C)CN3CCC(C)(O)C3)nc3c2CCN(c2cccc4cccc(C)c24)C3)C[C@@H]1CC#N (single isomer, unassigned) [Compound 75, 4-((S)-4-acryloyl-3-(cyanomethyl)piperazin-1-yl)-N-((R or S)-1-((S or R)-3-hydroxy-3-methylpyrrolidin-1-yl)propan-2-yl)-7-(8-methylnaphthalen-1-yl)-5,6,7,8-tetrahydro-1,7-naphthyridine-2-carboxamide] | 7.2 | – | 0.068 | – |
| C=CC(=O)N1CCN(c2cc(C(=O)NCC3(N)CCCCCC3)nc3c2CCN(c2cccc4cccc(C)c24)C3)C[C@@H]1CC#N [Compound 91, (S)-4-(4-acryloyl-3-(cyanomethyl)piperazin-1-yl)-N-((1-aminocycloheptyl)methyl)-7-(8-methylnaphthalen-1-yl)-5,6,7,8-tetrahydro-1,7-naphthyridine-2-carboxamide] | 12 | 7.86 | – | – |
| C=CC(=O)N1CCN(c2cc(C(=O)N[C@@H](C)CN)nc3c2CCN(c2cccc4ccccc24)C3)C[C@@H]1CC#N [Compound 62, 4-((S)-4-acryloyl-3-(cyanomethyl)piperazin-1-yl)-N-((S)-1-aminopropan-2-yl)-7-(naphthalen-1-yl)-5,6,7,8-tetrahydro-1,7-naphthyridine-2-carboxamide] | 51 | 2.41 | – | – |
| C=CC(=O)N1CCN(c2cc(C(=O)NCC[C@H]3CCCN3)nc3c2CCN(c2cccc4cccc(C)c24)C3)C[C@@H]1CC#N [Compound 104, 4-((S)-4-acryloyl-3-(cyanomethyl)piperazin-1-yl)-7-(8-methylnaphthalen-1-yl)-N-(2-((R)-pyrrolidin-2-yl)ethyl)-5,6,7,8-tetrahydro-1,7-naphthyridine-2-carboxamide] | 12 | 4.9 | – | – |
| C=CC(=O)N1CCN(c2cc(C(=O)N[C@H](C)CN3CC(F)(F)C3)nc3c2CCN(c2cccc4cccc(C)c24)C3)C[C@@H]1CC#N [Compound 68, 4-((S)-4-acryloyl-3-(cyanomethyl)piperazin-1-yl)-N—((R)-1-(3,3-difluoroazetidin-1-yl)propan-2-yl)-7-(8-methylnaphthalen-1-yl)-5,6,7,8-tetrahydro-1,7-naphthyridine-2-carboxamide] | 29 | 2.89 | – | – |
| C=CC(=O)N1CCN(c2cc(C(=O)N[C@H](C)CN(C)C)nc3c2CCN(c2cccc4cccc(C)c24)C3)CC1 [Compound 12, (R)-4-(4-acryloylpiperazin-1-yl)-N-(1-(dimethylamino)propan-2-yl)-7-(8-methylnaphthalen-1-yl)-5,6,7,8-tetrahydro-1,7-naphthyridine-2-carboxamide] | 66 | 5.94 | – | – |
| C=CC(=O)N1CCN(c2cc(C(=O)NC[C@H]3CCCN3)nc3c2CCN(c2cccc4cccc(C)c24)C3)C[C@@H]1CC#N [Compound 98, 4-((S)-4-acryloyl-3-(cyanomethyl)piperazin-1-yl)-7-(8-methylnaphthalen-1-yl)-N-(((R)-pyrrolidin-2-yl)methyl)-5,6,7,8-tetrahydro-1,7-naphthyridine-2-carboxamide] | 6.2 | 1.04 | – | – |
| C=CC(=O)N1CCN(c2cc(C(=O)NCCN(C)C)nc3c2CCN(c2cccc4ccccc24)C3)C[C@@H]1CC#N [Compound 60, (S)-4-(4-acryloyl-3-(cyanomethyl)piperazin-1-yl)-N-(2-(dimethylamino)ethyl)-7-(naphthalen-1-yl)-5,6,7,8-tetrahydro-1,7-naphthyridine-2-carboxamide] | 8.8 | 0.375 | – | – |
| C=CC(=O)N1CCN(c2cc(C(=O)NCC3(N)CCCCC3)nc3c2CCN(c2cccc4cccc(C)c24)C3)C[C@@H]1CC#N [Compound 89, (S)-4-(4-acryloyl-3-(cyanomethyl)piperazin-1-yl)-N-((1-aminocyclohexyl)methyl)-7-(8-methylnaphthalen-1-yl)-5,6,7,8-tetrahydro-1,7-naphthyridine-2-carboxamide] | 15 | 5.68 | – | – |
| C=CC(=O)N1CCN(c2cc(C(=O)NCC3CCCNC3)nc3c2CCN(c2cccc4cccc(C)c24)C3)C[C@@H]1CC#N (mixture of isomers) [Compound 106, 4-((S)-4-acryloyl-3-(cyanomethyl)piperazin-1-yl)-7-(8-methylnaphthalen-1-yl)-N-(((R)-piperidin-3-yl)methyl)-5,6,7,8-tetrahydro-1,7-naphthyridine-2-carboxamide, as a mixture with 4-((S)-4-acryloyl-3-(cyanomethyl)piperazin-1-yl)-7-(8-methylnaphthalen-1-yl)-N-(((S)-piperidin-3-yl)methyl)-5,6,7,8-tetrahydro-1,7-naphthyridine-2-carboxamide] | 33 | 5.24 | – | – |
